Source: patent US20120220562A1, “Anti-Viral Compounds” (ABBOTT LABAORATORIES, priority 2011, published 2012)

What follows are molecules tested on HCV 1b-Con1 replicon (assay: HCV 1b-Con1 replicon assay in the presence of 5% FBS). Details: Hepatitis C virus.
Assay type: cell-based

`COC(=O)N[C@H](C(=O)N1[C@H](c2nc3cc([C@H]4CC[C@H](c5ccc6[nH]c([C@@H]7CCC(C)(C)N7C(=O)[C@@H](NC(=O)OC)C(C)C)nc6c5)N4c4ccc(C(C)(C)C)cc4)ccc3[nH]2)CCC1(C)C)C(C)C` [Example 3.11, methyl {(2S)-1-[(5.5)-5-{5-[(2R,5R)-1-(4-tert-butylphenyl)-5-{2-[(2S)-1-{(2S)-2-[(methoxycarbonyl)amino]-3-methylbutanoyl}-5,5-dimethylpyrrolidin-2-yl]-1H-benzimidazol-5-yl}pyrrolidin-2-yl]-1H-benzimidazol-2-yl}-2,2-dimethylpyrrolidin-1-yl]-3-methyl-1-oxobutan-2-yl}carbamate] and `COC(=O)N[C@H](C(=O)N1C[C@@H](F)C[C@H]1c1nc2cc([C@H]3CC[C@H](c4ccc5[nH]c([C@@H]6C[C@H](F)CN6C(=O)[C@@H](NC(=O)OC)C(C)C)nc5c4)N3c3ccc(C(C)(C)C)cc3)ccc2[nH]1)C(C)C` [Example 3.12, methyl {(2S)-1-[(2S,4S)-2-{5-[(2R,5R)-1-(4-tert-butylphenyl)-5-{2-[(2S,45)-4-fluoro-1-{(2S)-2-[(methoxycarbonyl)amino]-3-methylbutanoyl}pyrrolidin-2-yl]-1H-benzimidazol-5-yl}pyrrolidin-2-yl]-1H-benzimidazol-2-yl}-4-fluoropyrrolidin-1-yl]-3-methyl-1-oxobutan-2-yl}carbamate] cannot be ordered by EC50: under 0.1 nM for the first, under 0.1 nM for the second.

First: COC(=O)N[C@H](C(=O)N1CCC[C@H]1c1nc2cc([C@@H]3CC[C@@H](c4ccc5[nH]c([C@@H]6CCCN6C(=O)[C@@H](NC(=O)OC)[C@@H](C)OC)nc5c4)N3c3ccc(C4CC4)cc3F)ccc2[nH]1)[C@@H](C)OC [Example 3.13, methyl {(2S,3R)-1-[(2S)-2-{5-[(2S,5S)-1-(4-cyclopropyl-2-fluorophenyl)-5-(2-{(2S)-1-[N-(methoxycarbonyl)-O-methyl-L-threonyl]pyrrolidin-2-yl}-1H-benzimidazol-5-yl)pyrrolidin-2-yl]-1H-benzimidazol-2-yl}pyrrolidin-1-yl]-3-methoxy-1-oxobutan-2-yl}carbamate]
Second: COC(=O)N[C@H](C(=O)N1CCC[C@H]1c1nc2cc([C@@H]3CC[C@@H](c4ccc5[nH]c([C@@H]6CCCN6C(=O)[C@@H](NC(=O)OC)[C@@H](C)OC)nc5c4)N3c3ccc(N4CCCCC4)c(F)c3)ccc2[nH]1)[C@@H](C)OC [Example 3.16, methyl {(2S,3R)-1-[(2S)-2-{5-[(2S,5S)-1-[3-fluoro-4-(piperidin-1-yl)phenyl]-5-(2-{(2S)-1-[N-(methoxycarbonyl)-O-methyl-L-threonyl]pyrrolidin-2-yl}-1H-benzimidazol-5-yl)pyrrolidin-2-yl]-1H-benzimidazol-2-yl}pyrrolidin-1-yl]-3-methoxy-1-oxobutan-2-yl}carbamate]
The EC50 of the first is lower: under 0.1 nM for the first, 0.1 to 1 nM for the second. The first is the more potent here.

First: CC(C)(C)OC(=O)NCC(=O)N1CCC[C@H]1c1nc2cc([C@@H]3CC[C@@H](c4ccc5[nH]c([C@@H]6CCCN6C(=O)CNC(=O)OC(C)(C)C)nc5c4)N3c3ccc(N4CCCCC4)c(F)c3)ccc2[nH]1 [Example 3.14, tert-butyl {2-[(2S)-2-(5-{(2S,5S)-5-{2-[(2S)-1-{[(tert-butoxycarbonyl)amino]acetyl}pyrrolidin-2-yl]-1H-benzimidazol-5-yl}-[3-fluoro-4-(piperidin-1-yl)phenyl]pyrrolidin-2-yl}-1H-benzimidazol-2-yl)pyrrolidin-1-yl]-2-oxoethyl}carbamate]
Second: COC(=O)N[C@H](C(=O)N1CCC[C@H]1c1nc2cc([C@@H]3CC[C@@H](c4ccc5[nH]c([C@@H]6CCCN6C(=O)[C@@H](NC(=O)OC)C(C)C)nc5c4)N3c3ccc(N4CCCCC4)c(F)c3)ccc2[nH]1)C(C)C [Example 3.15, methyl {(2S)-1-[(2S)-2-{5-[(2S,55)-1-[3-fluoro-4-(piperidin-1-yl)phenyl]-5-{2-[(2S)-1-{(2S)-2-[(methoxycarbonyl)amino]-3-methylbutanoyl}pyrrolidin-2-yl]-1H-benzimidazol-5-yl}pyrrolidin-2-yl]-1H-benzimidazol-2-yl}pyrrolidin-1-yl]-3-methyl-1-oxobutan-2-yl}carbamate]
The EC50 of the first is higher: over 10 nM for the first, under 0.1 nM for the second.

`COC(=O)NC(C(=O)N1CCC[C@H]1c1nc2cc([C@@H]3CC[C@@H](c4ccc5[nH]c([C@@H]6CCCN6C(=O)C(NC(=O)OC)=C(C)C)nc5c4)N3c3ccc(C(C)(C)C)cc3)ccc2[nH]1)=C(C)C` [Example 3.17, dimethyl {[(2S,5S)-1-(4-tert-butylphenyl)pyrrolidine-2,5-diyl]bis[1H-benzimidazole-5,2-diyl(2S)pyrrolidine-2,1-diyl(3-methyl-1-oxobut-2-ene-1,2-diyl)]}biscarbamate] and `C=C1C[C@@H](c2nc3cc([C@H]4CC[C@H](c5ccc6[nH]c([C@@H]7CC(=C)CN7C(=O)[C@@H](NC(=O)OC)C(C)C)nc6c5)N4c4ccc(C(C)(C)C)cc4)ccc3[nH]2)N(C(=O)[C@@H](NC(=O)OC)C(C)C)C1` [Example 3.26, methyl {(2S)-1-[(2S)-2-{5-[(2R,5R)-1-(4-tert-butylphenyl)-5-{2-[(2S)-1-{(2S)-2-[(methoxycarbonyl)amino]-3-methylbutanoyl}-4-methylidenepyrrolidin-2-yl]-1H-benzimidazol-5-yl}pyrrolidin-2-yl]-1H-benzimidazol-2-yl}-4-methylidenepyrrolidin-1-yl]-3-methyl-1-oxobutan-2-yl}carbamate] cannot be ordered by EC50: under 0.1 nM for the first, under 0.1 nM for the second.

`COC(=O)N[C@H](C(=O)N1CCC[C@H]1c1nc2cc([C@H]3CC[C@H](c4ccc5[nH]c([C@@H]6CCCN6C(=O)[C@@H](NC(=O)OC)C6CCOCC6)nc5c4)N3c3cc(F)c(N4CCCCC4)c(F)c3)ccc2[nH]1)C1CCOCC1` [Example 3.18, dimethyl ({(2R,5R)-1-[3,5-difluoro-4-(piperidin-1-yl)phenyl]pyrrolidine-2,5-diyl}bis{1H-benzimidazole-5,2-diyl(2S)pyrrolidine-2,1-diyl [(1S)-2-oxo-1-(tetrahydro-2H-pyran-4-yl)ethane-2,1-diyl]})biscarbamate] and `COC(=O)N[C@H](C(=O)N1CCC[C@H]1c1nc2cc([C@H]3CC[C@H](c4ccc5[nH]c([C@@H]6CCCN6C(=O)[C@@H](NC(=O)OC)C6CCOCC6)nc5c4)N3c3cc(F)c(N4CCC(c5ccccc5)CC4)c(F)c3)ccc2[nH]1)C1CCOCC1` [Example 3.23, dimethyl ({(2R,5R)-1-[3,5-difluoro-4-(4-phenylpiperidin-1-yl)phenyl]pyrrolidine-2,5-diyl}bis{1H-benzimidazole-5,2-diyl(2S)pyrrolidine-2,1-diyl [(1S)-2-oxo-1-(tetrahydro-2H-pyran-4-yl)ethane-2,1-diyl]})biscarbamate] cannot be ordered by EC50: under 0.1 nM for the first, under 0.1 nM for the second.

`COC(=O)N[C@H](C(=O)N1C2CCC(C2)[C@H]1c1nc2cc([C@H]3CC[C@H](c4ccc5[nH]c([C@@H]6C7CCC(C7)N6C(=O)[C@@H](NC(=O)OC)C(C)C)nc5c4)N3c3cc(F)c(N4CCCCC4)c(F)c3)ccc2[nH]1)C(C)C` [Example 3.19, methyl {(2S)-1-[(3S)-3-{5-[(2R,5R)-1-[3,5-difluoro-4-(piperidin-1-yl)phenyl]-5-{2-[(3S)-2-{(2S)-2-[(methoxycarbonyl)amino]-3-methylbutanoyl}-2-azabicyclo[2.2.1]hept-3-yl]-1H-benzimidazol-5-yl}pyrrolidin-2-yl]-1H-benzimidazol-2-yl}-2-azabicyclo[2.2.1]hept-2-yl]-3-methyl-1-oxobutan-2-yl}carbamate] and `COC(=O)N[C@@H](C(=O)N1c2ccccc2C[C@H]1c1nc2cc([C@H]3CC[C@H](c4ccc5[nH]c([C@@H]6Cc7ccccc7N6C(=O)[C@H](NC(=O)OC)C(C)C)nc5c4)N3c3cc(F)c(N4CCCCC4)c(F)c3)ccc2[nH]1)C(C)C` [Example 3.25, methyl {(2R)-1-[(2S)-2-{5-[(2R,5R)-1-[3,5-difluoro-4-(piperidin-1-yl)phenyl]-5-{2-[(2S)-1-{(2R)-2-[(methoxycarbonyl)amino]-3-methylbutanoyl}-2,3-dihydro-1H-indol-2-yl]-1H-benzimidazol-5-yl}pyrrolidin-2-yl]-1H-benzimidazol-2-yl}-2,3-dihydro-1H-indol-1-yl]-3-methyl-1-oxobutan-2-yl}carbamate] cannot be ordered by EC50: under 0.1 nM for the first, under 0.1 nM for the second.

`COC(=O)N[C@H](C(=O)N1CCC[C@H]1c1nc2cc([C@H]3CC[C@H](c4ccc5[nH]c([C@@H]6CCCN6C(=O)[C@@H](NC(=O)OC)C6CCOCC6)nc5c4)N3c3ccc(N4CCC(c5ccccc5)CC4)c(F)c3)ccc2[nH]1)C(C)C` [Example 3.21, methyl [(1S)-2-[(2S)-2-{5-[(2R,5R)-1-[3-fluoro-4-(4-phenylpiperidin-1-yl)phenyl]-5-{2-[(2S)-1-{(2S)-2-[(methoxycarbonyl)amino]-3-methylbutanoyl}pyrrolidin-2-yl]-1H-benzimidazol-5-yl}pyrrolidin-2-yl]-1H-benzimidazol-2-yl}pyrrolidin-1-yl]-2-oxo-1-(tetrahydro-2H-pyran-4-yl)ethyl]carbamate] and `COC(=O)N[C@H](C(=O)N1CCC[C@H]1c1nc2cc([C@H]3CC[C@H](c4ccc5[nH]c([C@@H]6CCCN6C(=O)[C@@H](NC(=O)OC)C6CCCC6)nc5c4)N3c3cc(F)c(N4CCC(c5ccccc5)CC4)c(F)c3)ccc2[nH]1)C1CCCC1` [Example 3.24, dimethyl ({(2R,5R)-1-[3,5-difluoro-4-(4-phenylpiperidin-1-yl)phenyl]pyrrolidine-2,5-diyl}bis{1H-benzimidazole-5,2-diyl(2S)pyrrolidine-2,1-diyl[(1S)-1-cyclopentyl-2-oxoethane-2,1-diyl]})biscarbamate] cannot be ordered by EC50: under 0.1 nM for the first, under 0.1 nM for the second.

`COC(=O)N[C@H](C(=O)N1CCC[C@H]1c1nc2cc([C@H]3CC[C@H](c4ccc5[nH]c([C@@H]6CCCN6C(=O)[C@@H](NC(=O)OC)C6CCCCC6)nc5c4)N3c3cc(F)c(N4CCC(c5ccccc5)CC4)c(F)c3)ccc2[nH]1)C1CCCCC1` [Example 3.22, dimethyl ({(2R,5R)-1-[3,5-difluoro-4-(4-phenylpiperidin-1-yl)phenyl]pyrrolidine-2,5-diyl}bis{1H-benzimidazole-5,2-diyl(2S)pyrrolidine-2,1-diyl [(1S)-1-cyclohexyl-2-oxoethane-2,1-diyl]})biscarbamate] showed an EC50 of under 0.1 nM.
